Test results: patent publication US10457707B2, “Substituted urea depsipeptide analogs as activators of the CLPP endopeptidase” (priority 2015, dated 2019)
≈ marks a conversion by molar mass, not a printed value. Read-outs that look alike come from different tables or passages of the source. *1 amine or outer side, *2 acyl side, *3 side chain or, on linkers, in order; H or OH if unused. Where a SMILES comes first, the peptide text is derived from it. Bridges are numbered along the chain shown (N, C = ends). [ ]: non-standard residue; d: D form. The star is where a group is joined. ξ: configuration not given here. NH(1,3-benzodioxol-5-yl) = c1cc2c(cc1N*)OCO2; Phe(3,5-F2) = N[C@@H](Cc1cc(F)cc(F)c1)C(=O)O; Pro(4R-Me) = C[C@H]1CN[C@H](C(=O)O)C1; X10 = O=C(C1C[C@H](F)CN1[*:1])[*:2]; X9 = CC1(C)CC(C(=O)[*:2])N([*:1])C1; NH(4-Me-phenyl) = Cc1ccc(N*)cc1; aThr = C[C@H](O)[C@H](N)C(=O)O; Pip = O=C(O)[C@@H]1CCCCN1; ξPip = O=C(O)C1CCCCN1; CO = O=C([*:1])[*:2]; ξP = O=C(O)C1CCCN1

Experiments:
Type in all cases: cell-based
[1] = system: Streptococcus pyogenes, ATCC 700294; assay: Minimal inhibitory concentration assay (microbroth dilution)
Experimental: (§1) It is understood, that in various aspects, the MIC is determined by a microbroth dilution method. In a further aspect, the MIC is determined by a microbroth dilution method using Staphylococcus aureus, ATCC 29213. In a still further aspect, the MIC is determined by a microbroth dilution method using Staphylococcus aureus, NRS70. In a yet further aspect, the MIC is determined by a microbroth dilution method using Streptococcus pyogenes, ATCC 700294. In an even further aspect, the MIC is determined by a microbroth dilution method using Streptococcus pneumoniae, DAW27. In a still further aspect, the MIC is determined by a microbroth dilution method using Bacillus subtilis, ATCC 23857. In a yet further aspect, the MIC is determined by a microbroth dilution method using Enterococcus faecalis, ATCC 33186. In an even further aspect, the MIC is determined using Staphylococcus aureus, USA 300. In a still further aspect, the MIC is determined using Streptococcus pneumoniae, R6. In a further aspect, the MIC is determined using Staphylococcus aureus, USA 300 and compared to the MIC determined using Staphylococcus aureus, USA 300 wherein ClpP is inactivated, thus allowing confirmation that killing is via a ClpP-dependent pathway.
Minimal inhibitory concentrations (“MICs”) were determined using the microbroth dilution method according to Clinical Laboratory Standards Institute (CLSI; National, C.F. C. L. S., Methods for Dilution Antimicrobial Susceptibility Tests for Bacteria Grow aerobically-Seventh Edition: Approved Standard M7-A7, CLSI, Wayne, Pa., USA, 2008) and were read by visual inspection. Two fold serial dilutions of test compound in 100 μL of the appropriate broth media were first prepared in 96-well round bottom microtiter plates (Nalgene Nunc International, Rochester, N.Y., USA). […] The plates were then incubated aerobically at 37° C. All strains were incubated overnight. After incubations, in all cases the MIC was recorded as the lowest concentration of drug that prevented bacterial growth. The bacterial strains for which MIC was determined as described in Table 4.

[2] = system: Staphylococcus aureus, NRS70; assay: as above
Experimental: as §1
(§2) Minimal inhibitory concentrations (“MICs”) were determined using the microbroth dilution method according to Clinical Laboratory Standards Institute (CLSI; National, C.F. C. L. S., Methods for Dilution Antimicrobial Susceptibility Tests for Bacteria Grow aerobically-Seventh Edition: Approved Standard M7-A7, CLSI, Wayne, Pa., USA, 2008) and were read by visual inspection. Two fold serial dilutions of test compound in 100 μL of the appropriate broth media were first prepared in 96-well round bottom microtiter plates (Nalgene Nunc International, Rochester, N.Y., USA). An equivalent volume (100 μL) of bacterial broth inocula containing approximately 10^5 bacterial cfu/mL was added to each well to give final concentrations of test compound starting at 200 μM. The plates were then incubated aerobically at 37° C. All strains were incubated overnight. After incubations, in all cases the MIC was recorded as the lowest concentration of drug that prevented bacterial growth. The bacterial strains for which MIC was determined as described in Table 4.

[3] = system: Staphylococcus aureus, ATCC 29213; assay: as above; conditions: ATCC29213, read-out: Minimal Inhibitory Concentrations S. aureus ATCC 29213
Experimental: as §1, §2

[4] = system: Bacillus subtilis, ATCC 23857; assay: as above
Experimental: as §1, §2

[5] = system: Staphylococcus aureus, USA 300; assay: Minimal inhibitory concentration assay; conditions: USA300, read-out: Minimal Inhibitory Concentrations S. aureus USA 300
Experimental: as §1, §2

[6] = system: Staphylococcus aureus, USA 300 wherein ClpP is inactivated; assay: Minimal inhibitory concentration assay
Experimental: as §1, §2

[7] = system: Streptococcus pneumoniae, R6; assay: Minimal inhibitory concentration assay; conditions: read-out: Minimal Inhibitory Concentrations S. pneumoniae R6
Experimental: It is understood, that in various aspects, the MIC is determined by a microbroth dilution method. […] In a still further aspect, the MIC is determined by a microbroth dilution method using Staphylococcus aureus, NRS70. […] In an even further aspect, the MIC is determined by a microbroth dilution method using Streptococcus pneumoniae, DAW27. […] In an even further aspect, the MIC is determined using Staphylococcus aureus, USA 300. In a still further aspect, the MIC is determined using Streptococcus pneumoniae, R6. In a further aspect, the MIC is determined using Staphylococcus aureus, USA 300 and compared to the MIC determined using Staphylococcus aureus, USA 300 wherein ClpP is inactivated, thus allowing confirmation that killing is via a ClpP-dependent pathway.
Two fold serial dilutions of test compound in 100 μL of the appropriate broth media were first prepared in 96-well round bottom microtiter plates (Nalgene Nunc International, Rochester, N.Y., USA). […] The plates were then incubated aerobically at 37° C. All strains were incubated overnight. After incubations, in all cases the MIC was recorded as the lowest concentration of drug that prevented bacterial growth. The bacterial strains for which MIC was determined as described in Table 4.

[8] = Streptococcus pyogenes, ATCC700294, read-out: Minimal Inhibitory Concentrations S. pyogenes ATCC 700294
[9] = Staphylococcus aureus, NRS70, read-out: Minimal Inhibitory Concentrations S. aureus NRS70
[10] = Bacillus subtilis, ATCC23857, read-out: Minimal Inhibitory Concentrations B. subtilis ATCC 23857

| Structure (SMILES) | MIC [1, 8] [µM] | MIC [2, 9] [µM] | MIC [3] [µM] | MIC [4, 10] [µM] | MIC [5] [µM] | Minimal Inhibitory Concentrations S. aureus USA 300 ΔClpP [6] [µM] | MIC [7] [µM] | MIC ([1]; Streptococcus pyogenes, ATCC700294; read-out: Minimal Inhibitory Concentrations S. pyogenes ATCC 700294) [µM] | MIC ([2]; Staphylococcus aureus, NRS70; read-out: Minimal Inhibitory Concentrations S. aureus NRS70) [µM] | MIC ([4]; Bacillus subtilis, ATCC23857; read-out: Minimal Inhibitory Concentrations B. subtilis ATCC 23857) [µM] |
| --- | --- | --- | --- | --- | --- | --- | --- | --- | --- | --- |
| Cc1ccc(NC(=O)N[C@@H](Cc2cc(F)cc(F)c2)C(=O)N[C@H]2COC(=O)C3C[C@H](F)CN3C(=O)[C@H](C)NC(=O)C3CCCCN3C(=O)C3CCCN3C2=O)cc1 (stereo partly drawn) [Compound 50, (S)-3-(3,5-difluorophenyl)-N-((2S,6S,8aS,14aS,20S,23aS)-2-fluoro-6-methyl-5,8,14,19,23-pentaoxooctadecahydro-1H,5H,14H,19H-pyrido[2,1-i]dipyrrolo[2,1-c:2′,1′-l][1]oxa[4,7,10,13]tetraazacyclohexadecin-20-yl)-2-(3-(p-tolyl)ureido)propanamide] ({NH(4-Me-phenyl)-CO}-[Phe(3,5-F2)]S[ξP][ξPip]A[X10]; ester 2-C) | 1.6 (≈ 1.28 µg/mL) | 1.6 (≈ 1.28 µg/mL) | 3.1 (≈ 2.47 µg/mL) | > 200 | 3.1 (≈ 2.47 µg/mL) | >200 | 0.8 (≈ 0.638 µg/mL) |  |  |  |
| Cc1ccc(NC(=O)N[C@@H](Cc2cc(F)cc(F)c2)C(=O)N[C@H]2COC(=O)C3CC(C)(C)CN3C(=O)[C@H](C)NC(=O)C3CCCCN3C(=O)C3CCCN3C2=O)cc1 (stereo partly drawn) [Compound 49, (S)-3-(3,5-difluorophenyl)-2-(3-(p-tolyl)ureido)-N-((6S,8aS,14aS,20S,23aS)-2,2,6-trimethyl-5,8,14,19,23-pentaoxooctadecahydro-1H,5H,14H,19H-pyrido[2,1-i]dipyrrolo[2,1-c:2′,1′-l][1]oxa[4,7,10,13]tetraazacyclohexadecin-20-yl)propanamide] ({NH(4-Me-phenyl)-CO}-[Phe(3,5-F2)]S[ξP][ξPip]A[X9]; ester 2-C) | 25 (≈ 20.2 µg/mL) | 12.5 (≈ 10.1 µg/mL) | 12.5 (≈ 10.1 µg/mL) | 0.4 (≈ 0.323 µg/mL) | 25 (≈ 20.2 µg/mL) | 100 | 6.3 (≈ 5.09 µg/mL) |  |  |  |
| C[C@@H]1C[C@H]2C(=O)O[C@@H](C)[C@H](NC(=O)[C@H](Cc3cc(F)cc(F)c3)NC(=O)Nc3ccc4c(c3)OCO4)C(=O)N3CCC[C@H]3C(=O)N3CCCC[C@H]3C(=O)N[C@@H](C)C(=O)N2C1 [Compound 198, (S)-2-(3-(benzo[d][1,3]dioxol-5-yl)ureido)-3-(3,5-difluorophenyl)-N-((2R,6S,8aS,14aS,20S,21S,23aS)-2,6,21-trimethyl-5,8,14,19,23-pentaoxooctadecahydro-1H,5H,14H,19H-pyrido[2,1-i]dipyrrolo[2,1-c:2′,1′-l][1]oxa[4,7,10,13]tetraazacyclohexadecin-20-yl)propanamide] ({NH(1,3-benzodioxol-5-yl)-CO}-[Phe(3,5-F2)][aThr]P[Pip]A[Pro(4R-Me)]; ester 2-C) |  |  | 0.039 (≈ 0.0327 µg/mL) |  | 0.039 (≈ 0.0327 µg/mL) | >20 | < 0.02 | 0.039 (≈ 0.0327 µg/mL) | < 0.02 | < 0.02 |
